The values that follow come from patent publication US20220362184A1, “GUT-PROTECTIVE COMPOSITIONS COMPRISING BOSWELLIC ACID” (INVENTIA HEALTHCARE LIMITED, priority 2019, published 2022).

Some results are limits rather than exact numbers.

The subject of series [1] is Dextran Sodium Sulphate (2.5% w/v) induced colitis in BALB/c mice. Briefly: Dextran Sodium Sulphate induced colitis, gut-protective effect. The format is in vivo. As to the method:
The compositions comprising boswellic acids are also evaluated for their gut-protective effect using Dextran Sodium Sulphate (2.5% w/v) induced colitis in BALB/c mice. Body weights of mice were recorded during study period, macroscopic examination was carried out for all terminal sacrificed, moribund and found dead animals. Colon and rectum were collected, and histopathology was performed. The composition comprising boswellic acid was also evaluated for gut-protective effect through antimicrobial activity against Helicobacter pylori strains using Micro-broth dilution method. The anti-bacterial minimum inhibitory concentration (MIC) was checked for the composition against Amoxycillin.
The gut-protective effect of composition comprising boswellic acids was evaluated using Dextran Sodium Sulphate (2.5% w/v) induced colitis in BALB/c mice. Dextran Sodium Sulphate (DSS) (36000 to 50000 Daltons molecular weight) was added in autoclaved drinking water and administered to the animals over 10 days for inducing disease condition. Group 2 served as disease control. Groups 3, 4 and 5 were treated with Test Item 1 (G3), Test Item 2 (G4) and Reference (Sulfasalazine—G5), respectively. Concurrent vehicle control group (G1) was also maintained.
Onset of colitis symptoms was monitored by measuring percent body weight, stool consistency (SC) and fecal occult blood (FOB). During the study period (10 days), Disease Activity Index (DAI) was calculated from scores of percent body weight, SC and FOB and were reported. Treatment was continued along with the DSS administration in drinking water up to 10 days by oral administration of Test and Reference Item as follows: • Group 1—Normal control (no DSS & no treatment) • Group 2—Disease control (only DSS, no treatment) • Group 3—DSS+Boswellic acid composition of Example 2: 41 mg/kg • Group 4—DSS+Boswellic acid composition of Example 4: 41 mg/kg • Group 5—DSS+Sulfasalazine: 30 mg/kg
Body weights were recorded daily throughout the study period. Macroscopic examination was carried out for all the terminal sacrificed, moribund and found dead animals. Colon and rectum were collected, and histopathology was performed.

In series [2] the test system is Helicobacter pylori strains. Briefly: Micro-broth dilution antimicrobial activity (MIC, CLSI). The settings on record: growth inhibited >90% compared to growth control. The series is classed as cell-based.
Procedure: Micro-broth dilution method was used to determine the antimicrobial activity of boswellic acid composition against Helicobacter pylori strains. The anti-bacterial minimum inhibitory concentration (MIC) study was performed as per the Clinical and Laboratory Standards Institute (CLSI) guidelines.
The test compound (composition comprising boswellic acid) was dissolved using Methanol to a concentration of 12.8 mg/mL (stock). Amoxicillin was dissolved in sterile Phosphate buffer to a concentration of 2 mg/mL.

Take `O=C(O)c1cc(/N=N/c2ccc(S(=O)(=O)Nc3ccccn3)cc2)ccc1O` [Sulfasalazine]: in series [1] (10 days oral with DSS, compositions 41 mg/kg, sulfasalazine 30 mg/kg), the “percentage of mortality during the study period” value is reported as 20%. Further, the “% body weight change” value in series [1] (Day 10, disease control −20.34%, vehicle control −0.44%) is listed as −17.77%. Besides, the “Mean Disease Activity Index (DAI)” value in series [1] (females, Day 10, disease control 3.9) came to 3.2; in series [1] (males, Day 10, disease control 3.1) it was 3.6.

A word on the MIC: it is the lowest concentration that inhibits growth of the organism. `CC1(C)S[C@@H]2[C@H](NC(=O)[C@H](N)c3ccc(O)cc3)C(=O)N2[C@H]1C(=O)O` [Amoxicillin]: the MIC in series [2] was less than 0.25 µg/mL.
